In one experiment the target is T1, MBR (Rattus norvegicus, UniProt P16257).
T1 construct: After male wistar rats were decapitated followed to remove the whole brain, cerebellums were removed; from tissue; host or cells: male Wistar rat whole brain without cerebellum, crude membrane pellet (12,000 g)
Briefly: Receptor binding: [3H]PK11195 competition binding, rat brain membrane preparation. The note with it: 1 nmol/L [3H]PK11195, rat brain membrane preparation; Ki from IC50 by Cheng & Prusoff. The method, then:
The affinity of the compound to MBR was determined using rat brain membrane preparation. After male wistar rats were decapitated followed to remove the whole brain, cerebellums were removed. They were homogenized in ice-cold 50 mmo/L Tris-HCl buffer (pH7.4) and the homogenates were centrifuged at 12,000 g for 20 min (4° C.), and then their supernatants were discarded. The residual pellets were washed in the same buffer. The pellets resuspended in 50 mmo/L Tris-HCl buffer (pH7.4) and adjusted to about 1 mg/mL were used as rat brain membrane preparations for binding assay. The binding assay was experimented using [3H]PK11195 as a selective MBR ligand.
To determine the amount of total binding in saturation binding study, membrane preparations, various concentrations of [^3H]PK11195, final concentraion: 0.5 vol % dimethylsulfoxide (DMSO) and 50 mmo/L Tris-HCl buffer (pH7.4) (total volume of 200 μL) were incubated for 1 hour at room temperature. To determine the amount of non-specific binding, 20 μmol/L of PK11195 was added in place of DMSO were incubated for 1 hour. The mixture rapidly was filtrated on GF/B filter soaked with 0.3% polyethyleneimine using cell harvester, which was washed twice with 50 mmo/L Tris-HCl buffer (pH7.4). After drying, the radioactivity on the filer was measured by liquid scintillation counter. The data were analyzed using analysis soft KELL (Ver. 6, BIOSOFT). The dissociation constant (KD value) was determined by using scatchard analyses.
To determine the amount of total binding in competition binding study, membrane preparation, final concentraion: 1 nmol/L of [^3H]PK11195, final concentraion: 0.5 vol % of DMSO and 50 mmol/L Tris-HCl buffer (pH7.4) (the total volume of 200 μL) were incubated for 1 hour at room temperature. […] The reaction was terminated as above described 1 hour later, then radioactivity on the filer was measured by liquid scintillation counter. […]

Experiment [1] has as its system rat adrenocortical mitochondria. Briefly: Determination of pregnenolone in rat adrenocortical mitochondria. The class given is biochemical. To be noted: final concentration of the compound 1 μmol/L; compared with DMSO treated group. On the procedure: The steroid productivity of the present compound was evaluated using rat adrenocortical mitochondria.
After intraperitoneal administration of 20 mg/mL (1 mL) cycloheximide, 10 IU/mL (0.3 mL) adrenocorticotropic hormone (ACTH) was intraperitoneally administered to Male SD rats 5 minutes later. Then, rats were sacrificed by cervical dislocation 20 minutes later and bilateral adrenal cortexes were extirpated at once. The extirpated adrenal cortexes were homogenized in buffer A (50 mmol/L Tris-HCl, 250 mmol/L Succrose) followed to be centrifuged at 2,000 g for 3 min (4° C.). The supernatant was centrifuged at 12,500 g for 10 min (4° C.). The residual pellet was resuspended in buffer A followed to be centrifuged at 12,500 g for 10 min (4° C.). The pellet was washed again and finally suspended in buffer B (250 mmol/L Succrose, 10 mmol/L potassium phosphate buffer, 15 mmol/L triethanolamine, 20 mmol/L potassium chloride, 5 mmol/L magnesium chloride, 10 μmol/L trilostane, 10 μmol/L SU10603) for experiments. Malate (150 mmol/L), β-NADP^+ (5 mmol/L) and the compound in a total volume of 25 μL were incubated for 5 min at 37° C. […] The radioactivity of the supernatant was measured by liquid scintillation counter. The pregnenolone content in the sample was calculated from standard curve.

For the compound `O=C(Nc1ccc(O)cc1)N1CCCCc2ccccc21` [Example 14, 1-(4-hydroxyphenylcarbamoyl)-2,3,4,5-tetrahydro-1H-1-benzazepine], the Ki (commonly the dissociation constant of the complex between target and ligand, obtained from inhibition or displacement) on MBR worked out at 32 nM.
Same read-out and setting: the same measure for `O=C(Nc1c(Cl)cccc1Cl)N1CCCCc2ccccc21` [7 (18), 1-(2,6-dichlorophenylcarbamoyl)-2,3,4,5-tetrahydro-1H-1-benzazepine]: 0.09 nM.
As to `CCCCCCN(CCCCCC)C(=O)Cc1c(-c2ccc(F)cc2)[nH]c2ccccc12` [FGIN1-27, 2-[2-(4-fluorophenyl)-1H-indol-3-yl]-N,N-dihexylacetamide], in experiment [1], the pregnenolone content entry was “higher than that in DMSO treated group”.
`O=C(Nc1ccccc1)N1CCCCc2ccc(F)cc21` [7 (5), 8-fluoro-1-phenylcarbamoyl-2,3,4,5-tetrahydro-1H-1-benzazepine]: on MBR, the Ki came out at 5.5 nM.
